Laboratory results reported in US8796023B2, “Peptide nanostructures containing end-capping modified peptides and methods of generating and using the same” (Ramot at Tel-Aviv University Ltd., priority 2004, dated 2014).
Where two headings read alike, the source gives them in different places. Residues, ends and D or L forms follow the SMILES beside them. *: point of attachment. Fmoc = O=C(OCC1c2ccccc2-c2ccccc21)*; Cbz = O=C(OCc1ccccc1)*; Boc = CC(C)(C)OC(=O)*

Columns and labels:
[1] = Self-assembly of end-capping modified diphenylalanine peptides, viewed by SEM/TEM; type: physicochemical; conditions: for structures formed by self-assembly (morphology): HFIP stock diluted in ddH2O, SEM/TEM/AFM
Method: (§1) Materials—End capping modified diphenylalanine peptides, presented in Table 3 hereinbelow, were purchase from Bachem (Bubendorf, Switzerland). Fresh stock solutions of the peptides were prepared by dissolving the lyophilized form of the peptides in 1,1,1,3,3,3-hexafluoro-2-propanol (HFIP, Sigma) at a concentration of 100 mg/ml. To avoid any pre-aggregation, fresh stock solutions were prepared for each experiment. The cyclo-Phe-Phe peptide (Peptide 8) was dissolved in HFIP to a concentration of 25 mg/ml and was subjected to ultrasound until a clear solution was obtained. The peptides stock solutions were diluted into a final concentration of 2 mg/ml in ddH2O. The NH2-Phe-Phe-NH2 peptide (Peptide 3) was diluted into a final concentration of 10 mg/ml in ddH2O.
Scanning electron microscopy (SEM) —Immediately after dilution in ddH2O, peptide solution was allowed to dry at room temperature over glass cover slip and coated with gold. Scanning electron microscopy images were obtained using a JSM JEOL 6300 SEM operating at 5 kV.
Transmission Electron microscopy (TEM) —Samples were placed on a 200 mesh copper grid, covered by carbon stabilized formvar film. After 1 minute excess fluid was removed and the grid was thereafter negatively stained with 2% uranyl acetate in water. After 2 minutes, excess fluid was removed from the grid. The samples were viewed in JEOL 1200EX electron microscope operating at 80 kV.
High resolution transmission electron microscopy—Samples were viewed using a Philips Tecnai F20 Field Emission Gun electron microscope operating at 200 kV. EDX analysis was performed with EDAX detector.
High resolution scanning electron microscopy—HRSEM grids were viewed using a JSM-6700 field emission scanning electron microscope equipped with a cold field emission gun operating at 1 kV.

[2] = same conditions, per WO 2004/052773; cited from earlier work
[3] = Fourier transform infrared spectroscopy of the self-assembled structures; type: physicochemical; conditions: FT-IR amide-I region
Method: Fourier Transform Infrared Spectroscopy—Infrared spectra were recorded using a Nicolet Nexus 470 FT-IR spectrometer with a deuterated triglycine sulfate (DTGS) detector. Peptide solution taken from the abovementioned SEM assays were deposited on a CaF2 plate and dried under reduced pressure. The peptide deposits were resuspended with D2O and subsequently dried to form thin films. The resuspension procedure was repeated twice to ensure maximal hydrogen to deuterium exchange. The measurements […] a 4 cm^−1 resolution and averaging of 2000 scans. The transmittance minimal values were determined by the OMNIC analysis program (Nicolet).

[4] = Atomic force microscope (AFM) imaging of the peptide nanostructures; type: physicochemical; conditions: tapping mode, deposited on mica
Method: Atomic Force Microscope (AFM) imaging—The peptide sample solution was diluted again in ddH2O to a concentration of 1 mg/ml. Then the peptide solution was placed on mica grade and dried in vacuum. Dried sample was analyzed using Molecular Imaging PicoSPM II system in tapping mode.

[5] = Dissolving the peptides for stock solutions; type: physicochemical; conditions: in water or in fluoroalcohols
Method: as §1

Compound | structures formed by self-assembly (morphology) [1] | molecular conformation of the self-assembled structures [3] | further results
O=C(NC(Cc1ccccc1)C(=O)NC(Cc1ccccc1)C(=O)O)OCC1c2ccccc2-c2ccccc21 (stereo not drawn) [Peptide 6, Fmoc-Phe-Phe-COOH] (Fmoc-Phe-Phe-OH; configuration not given here) | fibrillar structures |  | 
NC(Cc1ccccc1)C(=O)NC(Cc1ccccc1)C(=O)O (stereo not drawn) [Peptide 1, NH2-Phe-Phe-COOH] (H-Phe-Phe-OH; configuration not given here) |  |  | structures formed by self-assembly (morphology) [2]: formation of nanotubes
NC(=O)C(Cc1ccccc1)NC(=O)C(N)Cc1ccccc1 (stereo not drawn) [Peptide 3, NH2-Phe-Phe-NH2] (H-Phe-Phe-NH2; configuration not given here) | tubular structures | antiparallel β-sheet conformation | 
CC(C)(C)OC(=O)NC(Cc1ccccc1)C(=O)NC(Cc1ccccc1)C(=O)O (stereo not drawn) [Peptide 5, Boc-Phe-Phe-COOH] (Boc-Phe-Phe-OH; configuration not given here) | highly ordered tubular structures | α-helix conformation | 
CC(=O)NC(Cc1ccccc1)C(=O)NC(Cc1ccccc1)C(N)=O (stereo not drawn) [Peptide 2, Ac-Phe-Phe-NH2] (Ac-Phe-Phe-NH2; configuration not given here) | organized and regular tubular structures | β-sheet conformation | diameters of the tubular structures ([1]; SEM, within minutes after dilution of peptide stock into aqueous solution): few microns to less than 100 nanometers; height of nanostructures at the Z-range [4]: about 100 nm
CC(=O)NC(Cc1ccccc1)C(=O)NC(Cc1ccccc1)C(=O)O (stereo not drawn) [Peptide 4, Ac-Phe-Phe-COOH] (Ac-Phe-Phe-OH; configuration not given here) |  |  | dissolution [5]: did not dissolve
O=C(NC(Cc1ccccc1)C(=O)NC(Cc1ccccc1)C(=O)O)OCc1ccccc1 (stereo not drawn) [Peptide 7, Cbz-Phe-Phe-COOH] (Cbz-Phe-Phe-OH; configuration not given here) | fibrillar structures | antiparallel β-sheet conformation | 
cyclo-Phe-Phe [Peptide 8] | bundles of tubular structures | either an α-helix or a β-turn conformation | 
